{"source": "patent US4824829A", "about": "“Non-dusting antibiotic, anticoccidial premix compositions and a process for their manufacture” (American Cyanamid Company, priority 1985, dated 1989)", "key": {"[1]": {"assay": "Segregation study (drug accumulation in medicated poultry feed after two hours on drum roller)", "format": "physicochemical", "description": "The segregation test is performed in a commercially-blended poultry feed, supplemented with 1000 ppm (0.1%) of drug, using the premix prepared in Example 1 in one blend and pure drug with an equivalent amount of corncob grits in the other as indicated in Table IV below.\nThese materials are placed into new one-gallon Nalgene dense polyethylene jars and placed on a drum roller for two hours. At the end of the mixing time, the jars are sampled in the horizontal position to remove the material which has accumulated and packed in the neck (#1), then the jars are emptied without shaking or tapping, and a cross-sectional sample taken from the bulk (#2); finally, the empty jar is extracted and assayed for residual drug (#3)."}, "[2]": {"assay": "Relative Dermal Toxicities (LD50 Rabbit Dermal Toxicity)", "details": "in vivo, topical or ocular, Female, maduramicin"}, "in vivo": {"assay": "in vivo", "details": "rabbit, topical or ocular"}, "[3]": {"details": "emptied jar residue, feed with 1000 ppm drug"}, "[4]": {"details": "neck of jar, feed with 1000 ppm drug"}}}
{"smiles": "COC1CC(OC2CC(C3OC(C)(O)C(C)CC3C)OC2C2(C)CCC(C3(C)CCC4(CC(O)C(C)C(C(C)C5OC(O)(CC(=O)O)C(C)C(OC)C5OC)O4)O3)O2)OC(C)C1OC", "note": "(stereo not drawn) [Pure Drug]", "values": [{"measurement": "#2 Bulk sample, Assay", "setting": "[1]; cross-sectional bulk sample, feed with 1000 ppm drug", "value": 1115, "unit": "ppm"}, {"measurement": "#3 Bottle residue, Assay", "setting": "[1]; [3]", "value": 2300, "unit": "ppm"}, {"measurement": "#3 Bottle residue, Total Drug", "setting": "[1]; [3]", "value": 1.85, "unit": "mg"}, {"measurement": "#3 Bottle residue, Weight", "setting": "[1]; [3]", "value": 0.80, "unit": "g"}, {"measurement": "separation of drug from the feed", "setting": "[1]; mixed dry with feed", "value": "separates freely from the feed"}, {"measurement": "tendency to accumulate in the spots of least movement", "setting": "[1]; mixed dry with feed, neck of the bottle, vs premix", "value": "greater tendency to accumulate in the spots of least movement"}, {"measurement": "actual amount of drug segregating, pure drug vs premix (times larger)", "setting": "[1]; neck accumulation, pure drug relative to premix", "value": "more than seven"}, {"measurement": "#1 Neck accumulation, Assay", "setting": "[1]; [4]", "value": 1745, "unit": "ppm"}, {"measurement": "#1 Neck accumulation, Total Drug", "setting": "[1]; [4]", "value": 14.8, "unit": "mg"}, {"measurement": "#1 Neck accumulation, Weight", "setting": "[1]; [4]", "value": 8.5, "unit": "g"}]}
{"smiles": "CO[C@@H]1[C@@H](OC)[C@H](C)[C@@](O)(CC(=O)O)O[C@H]1[C@H](C)[C@H]1O[C@@]2(CC[C@@](C)([C@H]3CC[C@@](C)([C@@H]4O[C@@H]([C@H]5O[C@](C)(O)[C@H](C)C[C@@H]5C)C[C@@H]4O[C@@H]4C[C@H](OC)[C@@H](OC)[C@H](C)O4)O3)O2)C[C@H](O)[C@H]1C", "note": "[Composition 1, maduramicin]", "values": [{"measurement": "LD50", "setting": "[2]", "value": 3.7, "unit": "mg/kg"}, {"measurement": "LD50", "setting": "in vivo", "value": 8.9, "unit": "mg/kg"}]}
